The supplement of paper PMC10307832

Legend:
Assay in all cases: relative viability (nuclei count vs DMSO), 5 days (fraction); higher = more cells survive
[1] = compound: O=C(CCCCCCNC(=O)c1cnc(N(c2ccccc2)c2ccccc2)nc1)NO [Ricolinostat] + CC1(C)CCC(c2ccc(Cl)cc2)=C(CN2CCN(c3ccc(C(=O)NS(=O)(=O)c4ccc(N[C@H](CCN5CCOCC5)CSc5ccccc5)c(S(=O)(=O)C(F)(F)F)c4)cc3)CC2)C1 [Navitoclax] (partner 0.5 µM)
Procedure, shortened: (§1)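 Each reported value is a median over duplicate plates. It expresses relative viability: treated-well nuclei count divided by vehicle-well nuclei count. Lung cancer cell lines in 1536-well plates were dosed by pin tool a day after seeding, alone with one drug or with a fixed anchor-drug dose plus five library-drug doses (not always all listed) in √10 steps, and nuclei were counted after 5 days.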

[2] = compound: C1=CC=C(C(=C1)C2=CC=C(C=C2)C3=CSC4=C3C(=C(C(=O)N4)C#N)O)O + CCNC(=O)c1noc(-c2cc(C(C)C)c(O)cc2O)c1-c1ccc(CN2CCOCC2)cc1 [Luminespib] (partner 0.01 µM)
Procedure, shortened: as §1

[3] = compound: O=C(CCCCCCNC(=O)c1cnc(N(c2ccccc2)c2ccccc2)nc1)NO [Ricolinostat] + CC(=O)Nc1cccc(-n2c(=O)n(C3CC3)c(=O)c3c(Nc4ccc(I)cc4F)n(C)c(=O)c(C)c32)c1 [Trametinib] (partner 0.02 µM)
Procedure, shortened: as §1

TGX 221 + Pictilisib = compound: CC1=CN2C(=O)C=C(N=C2C(=C1)C(C)NC3=CC=CC=C3)N4CCOCC4 [TGX 221] + CS(=O)(=O)N1CCN(Cc2cc3nc(-c4cccc5[nH]ncc45)nc(N4CCOCC4)c3s2)CC1 [Pictilisib] (partner 1 µM)
Procedure, shortened: as §1

[4] = compound: C1=CC=C(C(=C1)C2=CC=C(C=C2)C3=CSC4=C3C(=C(C(=O)N4)C#N)O)O + CS(=O)(=O)N1CCN(Cc2cc3nc(-c4cccc5[nH]ncc45)nc(N4CCOCC4)c3s2)CC1 [Pictilisib] (partner 1 µM)
Procedure, shortened: as §1

## NCI-H1792
[1]; first compound 0.08 µM
  relative viability: 0.438
[1]; first compound 0.253 µM
  relative viability: 0.632
[1]; first compound 0.8 µM
  relative viability: 0.518
[1]; first compound 2.53 µM
  relative viability: 0.654
[2]; first compound 0.253 µM
  relative viability: 0.576
[2]; first compound 0.8 µM
  relative viability: 0.641
[2]; first compound 2.53 µM
  relative viability: 0.473
[2]; first compound 8 µM
  relative viability: 0.288
[3]; first compound 0.253 µM
  relative viability: 0.486
[3]; first compound 0.8 µM
  relative viability: 0.418
[3]; first compound 2.53 µM
  relative viability: 0.468
TGX 221 + Pictilisib; first compound 0.08 µM
  relative viability: 0.29
TGX 221 + Pictilisib; first compound 0.253 µM
  relative viability: 0.281
TGX 221 + Pictilisib; first compound 0.8 µM
  relative viability: 0.294
TGX 221 + Pictilisib; first compound 2.53 µM
  relative viability: 0.246
TGX 221 + Pictilisib; first compound 8 µM
  relative viability: 0.228
[4]; first compound 0.253 µM
  relative viability: 0.275
[4]; first compound 0.8 µM
  relative viability: 0.266
[4]; first compound 2.53 µM
  relative viability: 0.19
[4]; first compound 8 µM
  relative viability: 0.18
